Laboratory results published in ChEMBL document CHEMBL1130608, “Synthesis and anticancer evaluation of certain gamma-aryloxymethyl-alpha-methylene-gamma-phenyl-gamma-butyrolactones” (1998).

Assays:
LOX IMVI [1] = assay: In vitro anticancer activity against LOX IMVI melanoma cancer cell line; Most sensitive cell; assay type: functional; conditions: Homo sapiens
TK-10 = assay: In vitro anticancer activity against TK-10 renal cancer cell line; assay type: functional; conditions: Homo sapiens
COLO 205 = assay: In vitro anticancer activity against COLO 205 colon cancer cell line; assay type: functional; conditions: Homo sapiens
DU-145 = assay: In vitro anticancer activity against DU-145 prostate cancer cell line; assay type: functional; conditions: Homo sapiens
Hs-578T = assay: In vitro anticancer activity against Hs 578.T breast cancer cell line; assay type: functional; conditions: Homo sapiens
SR [2] = assay: In vitro anticancer activity against SR Leukemia cancer cell line; assay type: functional; conditions: Homo sapiens
SW-620 = assay: In vitro anticancer activity against SW-620 colon cancer cell line; assay type: functional; conditions: Homo sapiens
PC-3 = assay: In vitro anticancer activity against PC-3 prostate cancer cell line; assay type: functional; conditions: Homo sapiens
[3] = Ratio of the least sensitive cell to the most sensitive cell; assay type: functional
SNB-19 [4] = assay: In vitro anticancer activity against SNB-19 CNS cancer cell line; assay type: functional; conditions: Homo sapiens
HOP-62 [5] = assay: In vitro anticancer activity against HOP-62 non-smallcell lung cancer cell line; assay type: functional; conditions: Homo sapiens
Malme-3M = assay: In vitro anticancer activity against MALME-3M melanoma cancer cell line; assay type: functional; conditions: Homo sapiens
MDA-MB-435 = assay: In vitro anticancer activity against MDA-MB-435 breast cancer cell line; assay type: functional; conditions: Homo sapiens
U-251 [6] = assay: In vitro anticancer activity against U-251 CNS cancer cell line; Least sensitive cell; assay type: functional; conditions: Homo sapiens
NCI-H322M [7] = assay: In vitro anticancer activity against NCI-H322M non-small cell lung cancer cell line; assay type: functional; conditions: Homo sapiens
ACHN = assay: In vitro anticancer activity against ACHN renal cancer cell line; assay type: functional; conditions: Homo sapiens
IGROV-1 = assay: In vitro anticancer activity against IGROV1 ovarian cancer cell line; assay type: functional; conditions: Homo sapiens
RPMI-8226 [8] = assay: In vitro anticancer activity against RPMI-8226 Leukemia cancer cell line; assay type: functional; conditions: Homo sapiens
[9] = test system: Panel leukemia (Carcinoma cell lines); assay: Compound was evaluated for in vitro anticancer activity against leukemia cell lines; assay type: functional, cell-based
SNB-19 [10] = assay: In vitro anticancer activity against SNB-19 CNS cancer cell line; Least sensitive cell; assay type: functional; conditions: Homo sapiens
RPMI-8226 [11] = assay: In vitro anticancer activity against RPMI-8226 Leukemia cancer cell line; Most sensitive cell; assay type: functional; conditions: Homo sapiens
SK-OV-3 = assay: In vitro anticancer activity against SK-OV-3 ovarian cancer cell line; assay type: functional; conditions: Homo sapiens
U-251 [12] = assay: In vitro anticancer activity against U-251 CNS cancer cell line; assay type: functional; conditions: Homo sapiens
LOX IMVI [13] = assay: In vitro anticancer activity against LOX IMVI melanoma cancer cell line; assay type: functional; conditions: Homo sapiens
SNB-19 [14] = assay: In vitro anticancer activity against SNB-19 CNS cancer cell line; Leaset sensitive cell; assay type: functional; conditions: Homo sapiens
RPMI-8226 [15] = assay: In vitro anticancer activity against RPMI-8226 leukemia cancer cell line; assay type: functional; conditions: Homo sapiens
HOP-62 [16] = assay: In vitro anticancer activity against HOP-62 non-small cell lung cancer cell line; assay type: functional; conditions: Homo sapiens
NCI-H322M [17] = assay: In vitro anticancer activity against NCI-H322M non-small cell lung cancer cell line; Least sensitive cell; assay type: functional; conditions: Homo sapiens
SR [18] = assay: In vitro anticancer activity against SR leukemia cancer cell line; Most sensitive cell; assay type: functional; conditions: Homo sapiens
RPMI-8226 [19] = assay: In vitro anticancer activity against RPMI-8226 leukemia cancer cell line; Most sensitive cell; assay type: functional; conditions: Homo sapiens
SR [20] = assay: In vitro anticancer activity against SR leukemia cancer cell line; assay type: functional; conditions: Homo sapiens
HOP-62 [21] = assay: In vitro anticancer activity against HOP-62 non-smallcell lung cancer cell line; Least sensitive cell; assay type: functional; conditions: Homo sapiens

GI50 (COLO 205)	GI50 (DU-145)	GI50 (SW-620)	GI50 (PC-3)	GI50 (MDA-MB-435)	GI50 (NCI-H322M [7])	GI50 (ACHN)	GI50 (SK-OV-3)	GI50 (U-251 [12])	Molecule	GI50 (TK-10)	GI50 (Hs-578T)	GI50 (SR [2])	Ratio [3]	GI50 (SNB-19 [4])	GI50 (HOP-62 [5])	GI50 (Malme-3M)	GI50 (IGROV-1)	GI50 (LOX IMVI [13])	also measured
1740 nM	15100 nM	1950 nM	2140 nM	7410 nM	15500 nM	1740 nM	–	–	C=C1CC(COc2ccccc2)(c2ccccc2)OC1=O (stereo not given)	3160 nM	11700 nM	3240 nM	1.06	11200 nM	14800 nM	10500 nM	14100 nM	–	GI50 (LOX IMVI [1]): 1510 nM; GI50 (U-251 [6]): 17400 nM; GI50 (RPMI-8226 [8]): 1950 nM
–	–	–	–	–	–	–	–	–	CARBOPLATIN	–	–	–	–	–	–	–	–	–	GI50 [9]: 107000 nM
2240 nM	5620 nM	1480 nM	2950 nM	3020 nM	12000 nM	1580 nM	6760 nM	1780 nM	C=C1CC(COc2cccc3ccc(C)nc23)(c2ccccc2)OC1=O (stereo not given)	2090 nM	2000 nM	776 nM	3.23	–	3240 nM	1700 nM	1780 nM	1450 nM	GI50 (SNB-19 [10]): 17000 nM; GI50 (RPMI-8226 [11]): 10 nM
1780 nM	11200 nM	1860 nM	3090 nM	2000 nM	8510 nM	1510 nM	7080 nM	1820 nM	C=C1CC(COc2ccc3cccc(O)c3n2)(c2ccccc2)OC1=O (stereo not given)	7080 nM	2290 nM	724 nM	3.01	–	2140 nM	1700 nM	1660 nM	1290 nM	GI50 (SNB-19 [14]): 14500 nM; GI50 (RPMI-8226 [11]): 14.1 nM
3160 nM	11200 nM	1550 nM	4070 nM	1740 nM	–	4370 nM	7410 nM	3550 nM	C=C1CC(COc2cccc3ccccc23)(c2ccccc2)OC1=O (stereo not given)	10500 nM	6920 nM	–	1.84	7760 nM	–	2880 nM	1620 nM	1350 nM	GI50 (RPMI-8226 [15]): 2290 nM; GI50 (HOP-62 [16]): 15500 nM; GI50 (NCI-H322M [17]): 15800 nM; GI50 (SR [18]): 229 nM
1510 nM	3800 nM	1070 nM	1580 nM	2140 nM	–	1620 nM	9330 nM	2140 nM	C=C1CC(COc2cccc3cccnc23)(c2ccccc2)OC1=O (stereo not given)	1660 nM	1480 nM	–	2.87	12000 nM	5130 nM	1510 nM	1550 nM	1350 nM	GI50 (NCI-H322M [17]): 14800 nM; GI50 (RPMI-8226 [19]): 19.9 nM; GI50 (SR [20]): 245 nM
1950 nM	12000 nM	1910 nM	6460 nM	2880 nM	12900 nM	4370 nM	7590 nM	2820 nM	C=C1CC(COc2ccc3ccccc3c2)(c2ccccc2)OC1=O (stereo not given)	2880 nM	3890 nM	3310 nM	1.1	10500 nM	–	3390 nM	1550 nM	–	GI50 (LOX IMVI [1]): 1450 nM; GI50 (HOP-62 [21]): 18200 nM; GI50 (RPMI-8226 [8]): 2240 nM
–	–	–	–	–	–	–	–	–	CISPLATIN	–	–	–	–	–	–	–	–	–	GI50 [9]: 4470 nM
